The source of these data is ChEMBL document CHEMBL1201862, “PubChem BioAssay data set” (2004).

Molecules are shown by their SMILES.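 96-well plates; 48 h exposure; 5 concentrations. Endpoints by linear interpolation between flanking doses. Not reached: highest tested concentration assigned. At the GI50, growth is halved.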 Activity calls are given as the source filed them. Cut-off read from the data, not from the text of the source: active = GI50 up to about 1.1 µM and inactive = higher.

Test systems include K562; Hs-578T; SK-MEL-2; RXF 393; SNB-19; T47D; RPMI-8226; SF-539; BT-549; HCC 2998; A549; KM12; SK-MEL-5; SW-620; MDA-MB-435; HCT-15; OVCAR-5; HCT-116; NCI-H226; SNB-75.
What all share (assay): DTP human tumour cell line panel, 48 h

On to `O=C(/C=C/c1cc2ccccc2o1)N1CCN(c2ccccn2)CC1`, for which the GI50 in the assay on K562 was > 100 µM (inactive); in the assay with Hs-578T it was > 100 µM (inactive); with SK-MEL-2 it was > 100 µM (inactive); in the assay on RXF 393, > 100 µM (inactive); in the assay on SNB-19, > 100 µM (inactive); in the assay on T47D, 44.3 µM (inactive). The GI50 with RPMI-8226 is > 100 µM (inactive); in the assay with SF-539 it was > 100 µM (inactive); in the assay on BT-549, > 100 µM (inactive); in the assay on HCC 2998 it was > 100 µM (inactive); in the assay with A549, > 100 µM (inactive); in the assay with KM12, 87.5 µM (inactive). Moreover, the GI50 is > 100 µM (inactive) with SK-MEL-5; > 100 µM (inactive) with SW-620; > 100 µM (inactive) with MDA-MB-435; 74.6 µM in the assay with HCT-15; > 100 µM (inactive) with OVCAR-5; 85.3 µM (inactive) with HCT-116.

As for `CC(=O)O[C@H]1C(=O)[C@@]2(C)[C@H]([C@H](OC(=O)c3ccccc3)[C@]3(O)C[C@H](OC(=O)[C@H](O)[C@@H](NC(=O)c4ccccc4)C4CCCCC4)C(C)=C1C3(C)C)[C@]1(OC(C)=O)CO[C@@H]1C[C@@H]2O`, the 50% growth inhibitory concentration (GI50) in the assay on K562 is < 0.01 µM (active); in the assay with Hs-578T, < 0.01 µM (active); in the assay with SK-MEL-2, 17.3 µM (inactive); in the assay with RXF 393, < 0.01 µM (active); in the assay on SNB-19, 0.013 µM (active); in the assay on T47D it was < 0.01 µM (active). In addition, the GI50 was < 0.01 µM (active) with RPMI-8226; < 0.01 µM (active) in the assay with NCI-H226; < 0.01 µM (active) in the assay with SF-539; 0.0143 µM (active) with BT-549; < 0.01 µM (active) in the assay on HCC 2998; < 0.0173 µM (active) in the assay with A549. Further, the GI50 with KM12 was < 0.01 µM (active); with SK-MEL-5, < 0.01 µM (active); in the assay on SW-620, < 0.01 µM (active); in the assay with MDA-MB-435 it was < 0.01 µM (active); with HCT-15 it was 0.12 µM; in the assay on OVCAR-5, < 0.01 µM (active). Besides, in the assay on HCT-116, the GI50 was < 0.01 µM (active).

For the compound `CC(C)(C)CN1[C@@H]2CCCC[C@H]2N(CC(C)(C)C)P1(=O)Cc1ccccc1`, the GI50 in the assay on K562 was 13.6 µM (inactive); in the assay with Hs-578T it was 15.7 µM (inactive); with SK-MEL-2, 16.1 µM (inactive); with RXF 393, 10.8 µM (inactive); in the assay on SNB-19 it was 14.6 µM (inactive); in the assay on SNB-75 it was 11.4 µM (inactive). Moreover, the GI50 in the assay with T47D was 10.1 µM (inactive); in the assay on NCI-H226 it was 12.9 µM (inactive); in the assay on SF-539, 17.3 µM (inactive); with BT-549, 17.1 µM (inactive); with HCC 2998, 9.14 µM (inactive); with A549, 11.6 µM (inactive). For the same compound, the GI50 in the assay on KM12 is 13.1 µM (inactive); in the assay on SK-MEL-5 it was 12.2 µM (inactive); in the assay on SW-620, 14 µM (inactive); in the assay with MDA-MB-435, 16.2 µM (inactive); in the assay on HCT-15, 12 µM; in the assay on OVCAR-5, 12.7 µM (inactive). For the same compound, the GI50 in the assay on HCT-116 is 10.2 µM (inactive).

For `CC1(C)O[C@@H]2[C@@H](COC(=O)c3ccccc3)C[C@@H](C#N)[C@@H]2O1`, the GI50 in the assay on K562 was > 100 µM (inactive); in the assay with Hs-578T, 29.2 µM (inactive); with RXF 393, > 100 µM (inactive); in the assay with SNB-19 it was > 100 µM (inactive); with SNB-75 it was > 100 µM (inactive); in the assay with T47D, > 100 µM (inactive). The GI50 with RPMI-8226, with NCI-H226, with SF-539, in the assay with BT-549, in the assay with HCC 2998 and in the assay on A549 was > 100 µM (inactive) each time. In addition, the GI50 is > 100 µM (inactive) with KM12; > 100 µM (inactive) in the assay with SK-MEL-5; > 100 µM (inactive) with SW-620; > 100 µM (inactive) in the assay on MDA-MB-435; more than 100 µM in the assay on HCT-15; > 100 µM (inactive) in the assay on OVCAR-5. Also, the GI50 with HCT-116 is > 100 µM (inactive).

Consider `COc1ccc(/N=C2\C(=O)C3=C(OC(C)(C)CC3)c3ccccc32)cc1`, for which the GI50 in the assay with K562 was 0.612 µM (active); in the assay with Hs-578T, 1.63 µM (inactive); with SK-MEL-2, 1.16 µM (inactive); in the assay with RXF 393, 1.09 µM (active); in the assay with SNB-19, 0.916 µM (active); with SNB-75, 1.11 µM (active). In addition, the GI50 in the assay with T47D is 0.839 µM (active); in the assay on NCI-H226, 6.37 µM (inactive); with SF-539, 0.005 µM (active); in the assay with BT-549, 1.1 µM (active); in the assay with HCC 2998, 1.51 µM (inactive); with A549, 0.946 µM (active). Also, the GI50 is 0.968 µM (active) with KM12; 0.838 µM (active) in the assay with SK-MEL-5; 0.873 µM (active) with SW-620; 0.264 µM (active) in the assay on MDA-MB-435; 1.05 µM in the assay on HCT-15; 2.82 µM (inactive) with OVCAR-5. Further, in the assay on HCT-116, the GI50 is 0.499 µM (active).

As to `CCCCc1ccc(-n2sc3ncc(C)cc3c2=O)cc1`, the GI50 in the assay with K562 is 43.9 µM (inactive); in the assay with Hs-578T, > 100 µM (inactive); in the assay on SK-MEL-2, 10.6 µM (inactive); in the assay on RXF 393, 27.2 µM (inactive); in the assay with SNB-19, > 100 µM (inactive); in the assay with SNB-75, 42.9 µM (inactive). Also, the GI50 in the assay with T47D was 22.6 µM (inactive); in the assay on RPMI-8226 it was 22 µM (inactive); in the assay with NCI-H226, > 100 µM (inactive); in the assay with BT-549 it was 19.1 µM (inactive); in the assay with HCC 2998, 37.5 µM (inactive); in the assay with A549 it was 20.6 µM (inactive). The GI50 is 22.7 µM (inactive) in the assay on KM12; 21.5 µM (inactive) in the assay on SK-MEL-5; 27.4 µM (inactive) in the assay on SW-620; 79.8 µM (inactive) with MDA-MB-435; 16.4 µM in the assay with HCT-15; 22.7 µM (inactive) in the assay on OVCAR-5. Moreover, in the assay with HCT-116, the GI50 is 78 µM (inactive).

As to `O=C(Cc1ccccc1)NCCCN(CCCCN(CCCNC(=O)Cc1ccccc1)C(=O)OCc1ccccc1)C(=O)OCc1ccccc1`, the GI50 is 7.24 µM (inactive) with K562; > 100 µM (inactive) in the assay with Hs-578T; > 100 µM (inactive) with SK-MEL-2; > 31.4 µM (inactive) in the assay with RXF 393; > 36.4 µM (inactive) in the assay on T47D; 4.19 µM (inactive) in the assay with RPMI-8226. In addition, the GI50 was > 100 µM (inactive) with NCI-H226; > 100 µM (inactive) in the assay with SF-539; > 100 µM (inactive) in the assay with BT-549; > 38.1 µM (inactive) with HCC 2998; > 43 µM (inactive) in the assay with A549; > 100 µM (inactive) in the assay on KM12. Also, the GI50 with SW-620 is > 100 µM (inactive); in the assay with MDA-MB-435, > 100 µM (inactive); in the assay with HCT-15, more than 43.4 µM; in the assay on OVCAR-5, > 100 µM (inactive); with HCT-116, > 100 µM (inactive).

With `C=CCNC(=O)NC1=CSC2=NC(=O)C3(NN12)c1ccccc1-c1ccccc13`, the GI50 is > 10 µM (inactive) in the assay with K562; 4.16 µM (inactive) with Hs-578T; > 10 µM (inactive) in the assay on RXF 393; > 10 µM (inactive) with SNB-19; > 10 µM (inactive) in the assay on SNB-75; > 10 µM (inactive) in the assay on T47D. The GI50 with RPMI-8226, in the assay on NCI-H226, in the assay with SF-539, with BT-549, in the assay with HCC 2998 and with A549 was > 10 µM (inactive) each time. The GI50 with KM12 is > 10 µM (inactive); in the assay on SK-MEL-5, > 10 µM (inactive); in the assay on SW-620 it was > 10 µM (inactive); in the assay with MDA-MB-435, > 10 µM (inactive); in the assay with HCT-15, more than 10 µM; with OVCAR-5, > 10 µM (inactive). Besides, the GI50 with HCT-116 was > 10 µM (inactive).
